# Patent publication US12303474B2, “S-enantiomerically enriched compositions of beta blockers for treating amyotrophic lateral sclerosis” (priority 2013, dated 2025)
# Like-named read-outs stand apart in the source and are kept apart here.
# Legend:
# [1] = system: G93A SOD1 B6SJL hybrid (G93A) model; assay: Body weight and body composition (lean mass, fat mass; NMR scans) in G93A SOD1 transgenic mice; assay type: in vivo; conditions: for Average Δ body weight / Average Δ fat mass / Average Δ lean mass: per day alive after disease onset
# Source text: (§1) Transgenic mice over-expressing a high copy number (25 copies) of mutated human SOD1 gene with a G93A point mutation, i.e., B6SJL-TgN [SOD1-G93A]1 Gur (G1H-G93A transgenic mice, JR2726; Hemizygote) (Gurney M E, et al., Science, 264, 1772-1775, 1994) (“G93A SOD1 B6SJL hybrid (G93A) model”), were used.
# […] […] There were 16 mice in the S-oxprenolol group.
# The primary endpoint was survival, humanely defined as the ability of the animal to right itself in 30 seconds after being laid on its side. Secondary endpoints were body weight, body composition, spontaneous activity and food intake. Body weight of the animals was assessed weekly until onset of disease. Additionally, body composition (fat mass and lean body mass) was assessed using NMR scans (EchoMRI-100, Echo Medical Systems, Houston, USA) every 4 days. After onset of disease, body weight and body composition were assessed every two days until the end of the study. All personal handling the animals was strictly blinded to the randomized treatment allocation.
# To study the effect of S-oxprenolol on body weight, body weight was monitored over time.
# To study the effect of the test compounds on lean body mass, lean mass was determined at the end of the study.
# To study the effect of the test compounds on fat mass, the fat mass were determined at the end of the study.
# To study the effect of S-oxprenolol on body weight, body weight was monitored over time. […] The number of all mice in the population is indicated as “n” in at the bottom of FIGS. 20A-20C.
# To study the effect of the test compounds on lean body mass, lean mass was determined at the end of the study. […] The number of all mice in the population is indicated as “n” in at the bottom of FIGS. 20D-20F.
# To study the effect of the test compounds on fat mass, the fat mass were determined at the end of the study. […] The number of all mice in the population is indicated as “n” in at the bottom of FIGS. 20G-20I.
# [2] = system: G93A SOD1 B6SJL hybrid (G93A) model; conditions: for Heart / gastrocnemius: end of study;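 on HR survival (FIG. 14): dosing began after ALS onset in G93A SOD1 mice, with survival as the endpoint, defined humanely as the animal failing to regain upright posture within 30 s when placed sideways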;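 on HR survival (FIG. 16): dosing began after ALS onset in G93A SOD1 mice, with survival as the endpoint, defined humanely as the animal failing to regain upright posture within 30 s when placed sideways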
# Procedure: as §1
# To study the effect of the test compounds on skeletal muscle atrophy, the skeletal muscle mass were determined at the end of the study.
# The number of all mice in the population is indicated as “n” in at the bottom of FIGS. 21A-21C.
# The number of all mice in the population is indicated as “n” in at the bottom of FIGS. 20D-20F.
# The number of all mice in the population is indicated as “n” in at the bottom of FIGS. 21G-21I.
# [3] = system: G93A SOD1 B6SJL hybrid (G93A) model; conditions: for HR survival (FIG. 14): all mice; for HR survival (FIG. 16): female mice; for HR survival (FIG. 15): male mice;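 on HR survival (FIG. 14): dosing began after ALS onset in G93A SOD1 mice, with survival as the endpoint, defined humanely as the animal failing to regain upright posture within 30 s when placed sideways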;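 on HR survival (FIG. 16): dosing began after ALS onset in G93A SOD1 mice, with survival as the endpoint, defined humanely as the animal failing to regain upright posture within 30 s when placed sideways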
# Source text: To study the effect of S-oxprenolol on survival, survival was monitored over time.
# [4] = system: G93A SOD1 B6SJL hybrid (G93A) model; assay: Disease progression score (JAX SOP) in G93A SOD1 transgenic mice
# Source text: The disease progression score is based on the JAX SOP (Ludolph A C, Bendotti C, Blaugrund E, Hengerer B, Loffler J P, Martin J, Meininger V, Meyer T, Moussaoui S, Robberecht W, Scott S, Silani V, Van Den Berg L H (ENMC Group For The Establishment Of Guidelines For The Conduct Of Preclinical And Proof Of Concept Studies In ALS/MND Models). 2007, which is incorporated by reference).
smiles,measurement,setting,value
CC(C)NCC(O)COc1cccc2ccccc12 (centres unmarked) [propanolol],Δ body weight,"[1]; all mice, 10 mg/kg/d",-5.89 ± 0.42 g
same,Δ fat mass,"[1]; all mice, 10 mg/kg/d",-1.82 ± 0.25 g
same,Δ lean mass,"[1]; all mice, 10 mg/kg/d",-4.89 ± -0.26 g
same,Average Δ body weight,"[1]; all mice, 10 mg/kg/d",-127.6 ± 10.6 mg/day
same,Average Δ fat mass,"[1]; all mice, 10 mg/kg/d",-43.9 ± 5.5 mg/day
same,Δ body weight,"[1]; female mice, 10 mg/kg/d",-5.66 ± 0.66 g
same,Δ fat mass,"[1]; female mice, 10 mg/kg/d",-1.65 ± 0.44 g
same,Δ lean mass,"[1]; female mice, 10 mg/kg/d",-4.70 ± 0.37 g
same,Average Δ body weight,"[1]; female mice, 10 mg/kg/d",-111.3 ± 13.2 mg/day
same,Average Δ fat mass,"[1]; female mice, 10 mg/kg/d",-30.9 ± 8.3 mg/day
same,Average Δ lean mass,"[1]; female mice, 10 mg/kg/d",-91.2 ± 8.3 mg/day
same,Δ body weight,"[1]; male mice, 10 mg/kg/d",-6.11 ± 0.54 g
same,Δ fat mass,"[1]; male mice, 10 mg/kg/d",-1.99 ± 0.26 g
same,Δ lean mass,"[1]; male mice, 10 mg/kg/d",-5.06 ± 0.37 g
same,Average Δ body weight,"[1]; male mice, 10 mg/kg/d",-142.7 ± 15.9 mg/day
same,Average Δ fat mass,"[1]; male mice, 10 mg/kg/d",-51.9 ± 6.9 mg/day
same,Average Δ lean mass,"[1]; male mice, 10 mg/kg/d",-118.6 ± 10.6 mg/day
same,BAT (brown adipose tissue),"[2]; all mice, 10 mg/kg/d",45.1 ± 2.9 mg
same,EDL (extensor digitorum longus),"[2]; all mice, 10 mg/kg/d",7.11 ± 0.37 mg
same,soleus,"[2]; all mice, 10 mg/kg/d",5.60 ± 0.28 mg
same,Heart,"[2]; all mice, 10 mg/kg/d",104.0 ± 3.2 mg
same,gastrocnemius,"[2]; all mice, 10 mg/kg/d",52.4 ± 3.3 mg
same,BAT (brown adipose tissue),"[2]; female mice, 10 mg/kg/d",41.2 ± 2.2 mg
same,EDL (extensor digitorum longus),"[2]; female mice, 10 mg/kg/d",6.21 ± 0.37 mg
same,soleus,"[2]; female mice, 10 mg/kg/d",5.57 ± 0.43 mg
same,Heart,"[2]; female mice, 10 mg/kg/d",93.8 ± 2.7 mg
same,gastrocnemius,"[2]; female mice, 10 mg/kg/d",40.6 ± 3.3 mg
same,BAT (brown adipose tissue),"[2]; male mice, 10 mg/kg/d",48.7 ± 5.1 mg
same,EDL (extensor digitorum longus),"[2]; male mice, 10 mg/kg/d",7.94 ± 0.55 mg
same,soleus,"[2]; male mice, 10 mg/kg/d",5.63 ± 0.38 mg
same,Heart,"[2]; male mice, 10 mg/kg/d",113.5 ± 4.6 mg
same,gastrocnemius,"[2]; male mice, 10 mg/kg/d",63.3 ± 3.6 mg
same,HR survival (FIG. 14),[3]; 10 mg/kg/day vs. placebo,0.73
same,HR survival (FIG. 16),[3]; 10 mg/kg/day vs. placebo,0.71
same,HR survival (FIG. 15),[3]; 10 mg/kg/day vs. placebo,0.59
same,HR Progression from score 1 to score 2 (FIG. 17),[4]; 10 mg/kg/day vs. placebo,0.64
same,HR Progression from score 1 to score 3 (FIG. 19),[4]; 10 mg/kg/day vs. placebo,0.72
same,HR Progression from score 2 to score 3 (FIG. 18),[4]; 10 mg/kg/day vs. placebo,0.99
"C=CCOc1ccccc1OCC(O)CNC(C)C (racemic) [oxprenolol, 1-[2-(allyloxy)phenoxy]-3-(isopropylamino)propan-2-ol]",Δ body weight,"[1]; all mice, 20 mg/kg/d",-5.59 ± 0.48 g
same,Δ fat mass,"[1]; all mice, 20 mg/kg/d",-1.49 ± 0.12 g
same,Δ lean mass,"[1]; all mice, 20 mg/kg/d",-4.67 ± 0.42 g
same,Average Δ fat mass,"[1]; all mice, 20 mg/kg/d",-33.1 ± 2.6 mg/day
same,Average Δ lean mass,"[1]; all mice, 20 mg/kg/d",-102.0 ± 10.7 mg/day
same,Δ body weight,"[1]; female mice, 20 mg/kg/d",-5.27 ± 0.61 g
same,Δ fat mass,"[1]; female mice, 20 mg/kg/d",-1.64 ± 0.21 g
same,Δ lean mass,"[1]; female mice, 20 mg/kg/d",-3.76 ± 0.42 g
same,Average Δ body weight,"[1]; female mice, 20 mg/kg/d",-122.5 ± 14.7 mg/day
same,Average Δ fat mass,"[1]; female mice, 20 mg/kg/d",-37.5 ± 3.7 mg/day
same,Average Δ lean mass,"[1]; female mice, 20 mg/kg/d",-85.8 ± 11.6 mg/day
same,Δ body weight,"[1]; male mice, 20 mg/kg/d",-5.94 ± 0.77 g
same,Δ fat mass,"[1]; male mice, 20 mg/kg/d",-1.33 ± 0.13 g
same,Δ lean mass,"[1]; male mice, 20 mg/kg/d",-5.64 ± 0.68 g
same,Average Δ body weight,"[1]; male mice, 20 mg/kg/d",-124.8 ± 20.7 mg/day
same,Average Δ fat mass,"[1]; male mice, 20 mg/kg/d",-28.3 ± 3.1 mg/day
same,Average Δ lean mass,"[1]; male mice, 20 mg/kg/d",-119.4 ± 17.7 mg/day
same,BAT (brown adipose tissue),"[2]; all mice, 20 mg/kg/d",40.6 ± 2.8 mg
same,EDL (extensor digitorum longus),"[2]; all mice, 20 mg/kg/d",7.24 ± 0.41 mg
same,soleus,"[2]; all mice, 20 mg/kg/d",4.99 ± 0.36 mg
same,Heart,"[2]; all mice, 20 mg/kg/d",100.2 ± 3.2 mg
same,gastrocnemius,"[2]; all mice, 20 mg/kg/d",52.2 ± 2.3 mg
same,BAT (brown adipose tissue),"[2]; female mice, 20 mg/kg/d",35.2 ± 4.1 mg
same,EDL (extensor digitorum longus),"[2]; female mice, 20 mg/kg/d",6.97 ± 0.36 mg
same,soleus,"[2]; female mice, 20 mg/kg/d",4.76 ± 0.52 mg
same,Heart,"[2]; female mice, 20 mg/kg/d",89.5 ± 2.4 mg
same,gastrocnemius,"[2]; female mice, 20 mg/kg/d",49.5 ± 2.1 mg
same,BAT (brown adipose tissue),"[2]; male mice, 20 mg/kg/d",45.7 ± 3.6 mg
same,EDL (extensor digitorum longus),"[2]; male mice, 20 mg/kg/d",7.49 ± 0.72 mg
same,soleus,"[2]; male mice, 20 mg/kg/d",5.21 ± 0.51 mg
same,Heart,"[2]; male mice, 20 mg/kg/d",110.2 ± 2.9 mg
same,gastrocnemius,"[2]; male mice, 20 mg/kg/d",54.7 ± 3.9 mg
same,HR survival (FIG. 14),[3]; 20 mg/kg/day vs. placebo,0.66
same,HR survival (FIG. 16),[3]; 20 mg/kg/day vs. placebo,1.03
same,HR survival (FIG. 15),[3]; 20 mg/kg/day vs. placebo,0.38
same,HR Progression from score 1 to score 2 (FIG. 17),[4]; 20 mg/kg/day vs. placebo,0.60
same,HR Progression from score 1 to score 3 (FIG. 19),[4]; 20 mg/kg/day vs. placebo,0.60
same,HR Progression from score 2 to score 3 (FIG. 18),[4]; 20 mg/kg/day vs. placebo,0.77
CC(C)NCC(O)COc1cccc2[nH]ccc12 (centres unmarked) [S-pindolol],Median survival after onset of ALS symptoms,"[3]; 3 mg/kg/day, placebo 28 days",31 days
Nc1nc2ccc(OC(F)(F)F)cc2s1 [rilutek],Δ body weight,"[1]; all mice, 30 mg/kg/d",-5.10 ± 0.35 g
same,Δ fat mass,"[1]; all mice, 30 mg/kg/d",-1.91 ± 0.15 g
same,Δ lean mass,"[1]; all mice, 30 mg/kg/d",-3.71 ± 0.27 g
same,Average Δ body weight,"[1]; all mice, 30 mg/kg/d",-121.6 ± 15.2 mg/day
same,Average Δ fat mass,"[1]; all mice, 30 mg/kg/d",-50.1 ± 6.1 mg/day
same,Average Δ lean mass,"[1]; all mice, 30 mg/kg/d",-92.31 ± 15.84 mg/day
same,Δ body weight,"[1]; female mice, 30 mg/kg/d",-4.49 ± 0.46 g
same,Δ fat mass,"[1]; female mice, 30 mg/kg/d",-1.76 ± 0.21 g
same,Δ lean mass,"[1]; female mice, 30 mg/kg/d",-3.31 ± 0.37 g
same,Average Δ body weight,"[1]; female mice, 30 mg/kg/d",-122.9 ± 25.7 mg/day
same,Average Δ fat mass,"[1]; female mice, 30 mg/kg/d",-42.2 ± 6.1 mg/day
same,Average Δ lean mass,"[1]; female mice, 30 mg/kg/d",-96.9 ± 24.2 mg/day
same,Δ body weight,"[1]; male mice, 30 mg/kg/d",-5.91 ± 0.43 g
same,Δ fat mass,"[1]; male mice, 30 mg/kg/d",-2.09 ± 0.22 g
same,Δ lean mass,"[1]; male mice, 30 mg/kg/d",-4.19 ± 0.38 g
same,Average Δ body weight,"[1]; male mice, 30 mg/kg/d",-120.4 ± 17.9 mg/day
same,Average Δ fat mass,"[1]; male mice, 30 mg/kg/d",-57.5 ± 11.3 mg/day
same,Average Δ lean mass,"[1]; male mice, 30 mg/kg/d",-87.4 ± 21.1 mg/day
same,EDL (extensor digitorum longus),"[2]; all mice, 30 mg/kg/d",6.71 ± 0.32 mg
same,soleus,"[2]; all mice, 30 mg/kg/d",5.47 ± 0.39 mg
same,Heart,"[2]; all mice, 30 mg/kg/d",103.5 ± 2.8 mg
same,gastrocnemius,"[2]; all mice, 30 mg/kg/d",55.2 ± 3.0 mg
same,EDL (extensor digitorum longus),"[2]; female mice, 30 mg/kg/d",6.28 ± 039 mg
same,soleus,"[2]; female mice, 30 mg/kg/d",5.26 ± 0.48 mg
same,Heart,"[2]; female mice, 30 mg/kg/d",91.4 ± 2.3 mg
same,gastrocnemius,"[2]; female mice, 30 mg/kg/d",54.1 ± 3.8 mg
same,EDL (extensor digitorum longus),"[2]; male mice, 30 mg/kg/d",7.20 ± 0.51 mg
same,soleus,"[2]; male mice, 30 mg/kg/d",5.72 ± 0.64 mg
same,Heart,"[2]; male mice, 30 mg/kg/d",115.6 ± 2.4 mg
same,gastrocnemius,"[2]; male mice, 30 mg/kg/d",58.3 ± 4.9 mg
same,HR Progression from score 1 to score 2 (FIG. 17),[4]; 30 mg/kg/day vs. placebo,0.82
same,HR Progression from score 1 to score 3 (FIG. 19),[4]; 30 mg/kg/day vs. placebo,0.76
same,HR Progression from score 2 to score 3 (FIG. 18),[4]; 30 mg/kg/day vs. placebo,0.68
